Data taken from patent publication US6696456B1, “Beta disubstituted metalloprotease inhibitors” (The Procter & Gamble Company, priority 1999, dated 2004).

Experiments:
[1] = test system: human subject suffering from rheumatoid arthritis; assay: Example A: oral tablet treatment of a subject with rheumatoid arthritis; assay type: in vivo; details: tablet with 15 mg compound, three tablets per day orally for 2 years, 60 kg human
Procedure: A tablet composition for oral administration, according to the present invention, is made comprising:
A human subject weighing 60 kg (132 lbs), suffering from rheumatoid arthritis, is treated by a method of this invention. Specifically, for 2 years, a regimen of three tablets per day is administered orally to said subject.

[2] = test system: human subject suffering from osteoarthritis; assay: Example B: oral capsule treatment of a subject with osteoarthritis; assay type: in vivo; details: capsule with 70 mg compound daily for 5 years, 90 kg human
Procedure: A capsule for oral administration, according to the present invention, is made comprising:
A human subject weighing 90 kg (198 lbs.), suffering from osteoarthritis, is treated by a method of this invention. Specifically, for 5 years, the above capsule, which contains 70 mg of the compound of Example 4, is administered daily to said subject.

Row | Structure (SMILES) | inflammation, mobility and pain at the end of the treatment period [1] | erosion/fibrillation of the articular cartilage via x-ray, arthroscopy and/or MRI [2]
1 | COc1ccc(-c2ccc(S(=O)(=O)N[C@@H](C(=O)O)[C@H](OCc3ccc(C)cc3)c3nccs3)cc2)cc1 [Example 1, (2R,3S)-2-(4′ -Methoxy-biphenyl-4-sulfonylamino)-3-(4-methyl-benzyloxy)-3-thiazol-2-yl-propionic Acid] | reduced inflammation and improved mobility without concomitant pain | 
2 | CCS[C@H](c1ccccc1)[C@@H](NS(=O)(=O)c1ccc(-c2ccc(F)cc2)cc1)C(=O)O [Example 4, (2S,3R)-3-Ethylsulfanyl-2-(4′-fluoro-biphenyl-4-sulfonylamino)-3-phenyl-propionic Acid] |  | no further advancement of erosion/fibrillation of the articular cartilage
